Ends that are not written are not given here. * marks the point of attachment. Biotin = O=C1N[C@H]2[C@H](CS[C@H]2CCCCC(=O)*)N1
Legend:
c-Jun = c-Jun (Homo sapiens, UniProt P05412); details: cited from earlier work
BT-549 cells = details: RAD51 inhibitor; cited from earlier work
[1] = target: His-tagged recombinant c-Jun (UniProt P05412 1-331); assay: BLI
Sequence of His-tagged recombinant c-Jun (P05412 whole entry): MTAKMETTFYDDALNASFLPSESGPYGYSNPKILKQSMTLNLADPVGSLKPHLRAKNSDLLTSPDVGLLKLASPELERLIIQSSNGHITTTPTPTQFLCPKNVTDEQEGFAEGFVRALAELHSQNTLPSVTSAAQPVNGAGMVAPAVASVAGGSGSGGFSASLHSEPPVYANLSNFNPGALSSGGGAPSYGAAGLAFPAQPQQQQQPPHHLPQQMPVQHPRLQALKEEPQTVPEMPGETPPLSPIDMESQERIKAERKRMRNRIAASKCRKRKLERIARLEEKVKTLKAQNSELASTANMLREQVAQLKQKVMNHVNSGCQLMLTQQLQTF

Sequence of c-Jun (P05412 whole entry): as above

CC[C@]1(O)C[C@@H]2CN(CCc3c([nH]c4ccccc34)[C@@](C(=O)OC)(c3cc4c(cc3OC)N(C)[C@H]3[C@@](O)(C(=O)OC)[C@H](OC(C)=O)[C@]5(CC)C=CCN6CC[C@]43[C@@H]65)C2)C1 [Vinblastine]
p21 (c-Jun): decrease in p21
phosphorylated c-Jun (c-Jun): increasing phosphorylated c-Jun

O=C1C(Cl)=C(N2CCOCC2)C(=O)N1c1ccc(Cl)c(Cl)c1 [RI-1]
effect on efficiency of double stranded DNA break repair (BT-549 cells): little to no effect

B1: CAPER Peptide HCC1.3 (peptide)
peptide: Biotin-YGRKKRRQRRRRLQLMARLAEGTGLQIPPAAQQALQMSGSLAFGAVADLQTRLSQQ
Kd [1]: 8.89 nM

B2: CAPER Peptide HCC1.4 (peptide)
peptide: Biotin-YGRKKRRQRRRRLQLMARLAEGTGLQIPPAAQQALQMSGSLAFGAVAEFSFVIDLQ
Kd [1]: 25.6 nM
